The target in this data set is ATP-binding cassette sub-family C member 2 (Rattus norvegicus, UniProt Q63120). Put plainly: TP_TRANSPORTER: uptake in bile canalicular membrane vesicles from Wistar/TR- rat. In kind it is functional, cell membranes, Bile canalicular membrane vesicle.

The text below walks through data of ChEMBL document CHEMBL2074510, “Defective ATP-dependent bile canalicular transport of organic anions in mutant (TR-) rats with conjugated hyperbilirubinemia” (Proc Natl Acad Sci U S A, 1990).

ATP-binding cassette sub-family C member 2, sequence (Q63120 whole entry): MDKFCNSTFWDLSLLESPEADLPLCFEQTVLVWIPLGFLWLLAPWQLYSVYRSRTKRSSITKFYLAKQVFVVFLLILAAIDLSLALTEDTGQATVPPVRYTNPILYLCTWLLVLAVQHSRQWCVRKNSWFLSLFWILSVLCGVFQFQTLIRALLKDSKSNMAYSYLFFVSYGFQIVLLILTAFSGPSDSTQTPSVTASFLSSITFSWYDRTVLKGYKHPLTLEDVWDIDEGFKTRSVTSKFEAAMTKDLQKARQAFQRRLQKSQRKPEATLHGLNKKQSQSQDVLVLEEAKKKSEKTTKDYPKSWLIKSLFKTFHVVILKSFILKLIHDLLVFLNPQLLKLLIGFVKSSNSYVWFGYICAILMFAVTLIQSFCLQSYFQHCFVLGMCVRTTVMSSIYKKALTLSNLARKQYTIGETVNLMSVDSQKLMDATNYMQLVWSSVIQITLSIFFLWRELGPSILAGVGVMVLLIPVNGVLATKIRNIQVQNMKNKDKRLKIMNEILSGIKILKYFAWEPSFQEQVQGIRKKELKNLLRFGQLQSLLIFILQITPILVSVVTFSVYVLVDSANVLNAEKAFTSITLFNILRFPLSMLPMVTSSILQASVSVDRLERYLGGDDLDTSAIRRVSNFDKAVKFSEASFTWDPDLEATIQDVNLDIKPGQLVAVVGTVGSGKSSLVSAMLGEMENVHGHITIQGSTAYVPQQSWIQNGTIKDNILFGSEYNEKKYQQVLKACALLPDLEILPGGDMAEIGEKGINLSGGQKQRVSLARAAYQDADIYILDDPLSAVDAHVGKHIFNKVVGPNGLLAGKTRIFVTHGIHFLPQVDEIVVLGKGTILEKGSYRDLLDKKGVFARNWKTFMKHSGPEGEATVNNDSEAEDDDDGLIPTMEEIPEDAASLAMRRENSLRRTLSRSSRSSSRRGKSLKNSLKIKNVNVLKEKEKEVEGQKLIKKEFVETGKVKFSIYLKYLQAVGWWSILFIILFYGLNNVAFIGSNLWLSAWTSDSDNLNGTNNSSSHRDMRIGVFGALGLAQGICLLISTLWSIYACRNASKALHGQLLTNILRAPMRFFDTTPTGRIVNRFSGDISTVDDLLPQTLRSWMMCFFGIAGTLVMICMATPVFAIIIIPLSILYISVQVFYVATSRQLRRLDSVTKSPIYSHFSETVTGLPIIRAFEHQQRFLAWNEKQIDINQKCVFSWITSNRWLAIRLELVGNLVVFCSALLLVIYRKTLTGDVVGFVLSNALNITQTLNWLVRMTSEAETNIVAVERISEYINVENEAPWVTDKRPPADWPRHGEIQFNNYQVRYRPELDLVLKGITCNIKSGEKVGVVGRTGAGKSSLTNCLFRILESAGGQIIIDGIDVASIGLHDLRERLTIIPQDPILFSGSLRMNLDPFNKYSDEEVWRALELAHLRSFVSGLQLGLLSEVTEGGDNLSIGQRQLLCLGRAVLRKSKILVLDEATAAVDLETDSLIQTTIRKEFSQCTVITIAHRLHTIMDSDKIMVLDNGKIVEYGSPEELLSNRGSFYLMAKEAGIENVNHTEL

`N[C@@H](CCC(=O)N[C@@H](CSc1c(Br)c(Br)c2c(c1Br)C(=O)OC2(c1ccc(O)c(S(=O)(=O)O)c1)c1ccc(O)c(S(=O)(=O)O)c1)C(=O)NCC(=O)O)C(=O)O`: the Activity result is “substrate [+]”.
